Results from ChEMBL document CHEMBL4411290, “Rogersonins A and B, Imidazolone N-Oxide-Incorporating Indole Alkaloids from a verG Disruption Mutant of Clonostachys rogersoniana” (J Nat Prod, 2019).
The source made the active and inactive calls.

Columns and labels:
Assay type in all cases: functional, cell-based
ACHN = test: Cytotoxicity against human ACHN cells assessed as reduction in cell viability at 50 uM incubated for 48 hrs by MTS assay
A549 = test: Cytotoxicity against human A549 cells assessed as reduction in cell viability at 50 uM incubated for 48 hrs by MTS assay
HeLa = test: Cytotoxicity against human HeLa cells assessed as reduction in cell viability at 50 uM incubated for 48 hrs by MTS assay
SH-SY5Y = test: Cytotoxicity against human SH-SY5Y cells assessed as reduction in cell viability at 50 uM incubated for 48 hrs by MTS assay
HepG2 = test: Cytotoxicity against human HepG2 cells assessed as reduction in cell viability at 50 uM incubated for 48 hrs by MTS assay
T-24 = test: Cytotoxicity against human T24 cells assessed as reduction in cell viability at 50 uM incubated for 48 hrs by MTS assay
HOS = test: Cytotoxicity against human HOS cells assessed as reduction in cell viability at 50 uM incubated for 48 hrs by MTS assay

Measured: Activity

CC1=[N+]([O-])[C@](Cc2c[nH]c3ccccc23)([C@H]2CC(=O)[C@@H](C)OC(=O)/C=C/[C@@H](O)CC[C@@H](C)OC2=O)NC1=O
inactive: ACHN | A549 | HeLa | SH-SY5Y | HepG2 | T-24 | HOS

CC1=[N+]([O-])[C@](Cc2c[nH]c3ccccc23)([C@H](CC(=O)[C@H](C)O)C(=O)O[C@@H](C)CC[C@@H]2C=CC(=O)O2)NC1=O
inactive: ACHN | A549 | HeLa | SH-SY5Y | HepG2 | T-24 | HOS
